Laboratory results taken from patent publication US20090018149A1, “4,5,6,7-tetrahydrobenzo[b]thiophene derivatives and methods for medical intervention against mycobacterial infections” (priority 2002, published 2009).

System: M. smegmatis expressing wildtype PknG
Format: cell-based, Mycobacterium smegmatis
Details: 10 μM compound, RAW cells, 24 h postinfection; mutant or vector control cleared up to 85%, wild type pknG only 25%

NC(=O)c1c(NC(=O)C2CC2)sc2c1CCCC2 [Compound 237, 2-(Cyclopropanecarbonyl-amino)-4,5,6,7-tetrahydro-benzo[b]thiophene-3-carboxylic acid amide]
clearance of PknG expressing M. smegmatis in macrophages: as efficient as observed with the mutant or vector control transformants
